Assay results: US11707474B2, “Methods for treating acute myeloid leukemia and related conditions” (GlycoMimetics, Inc., priority 2018, dated 2023)
Like-named read-outs stand apart in the source and are kept apart here.

Columns and labels:
[1] = Pharmacokinetics of weight-based doses in AML subjects; assay type: in vivo, human; conditions: for AUC, Mean / AUC, Median: dose 13 to dose 15; for Cmax: human, plasma, intravenous
Experimental: Three cohorts of 6-7 human subjects with acute myeloid leukemia (AML) each received a total of 15 infusions of 5, 10, or 20 mg/kg/dose over 8 days with a nominal infusion duration of 20 minutes. The first dose of a compound of Formula (I), was administered 24 hours±1 hour prior to the first dose of MEC (mitoxantrone, etoposide, and cytarabine) induction chemotherapy as a sentinel dose to evaluate the effect of the compound of Formula (I) alone, and then every 12 hours±1 hour on chemotherapy days, starting 2 hours prior to chemotherapy. […] MEC chemotherapy was administered on Days 2-6. Samples were obtained pre-dose, on Day 1, Day 3, Day 8, Day 9, and Day 10 (where Day 1 refers to the first day of dosing with a compound of Formula (I)).

[2] = tested on: relapsed/refractory type acute myeloid leukemia (AML); test: Phase 1 clinical outcomes, relapsed/refractory AML, sodium salt infusion with MEC; assay type: in vivo; conditions: R/R AML
Experimental: Three cohorts of 6-7 human subjects with relapsed/refractory type acute myeloid leukemia (AML) each received a total of 15 infusions of 5, 10, or 20 mg/kg/dose of the compound of Formula (I), administered as the sodium salt, over 8 days with a nominal infusion duration of 20 minutes. The nominal infusion duration of 20 minutes was constant across cohorts (e.g., a slower infusion rate was used for the administration of the 5 mg/kg/dose arm than for the 10 mg/kg/dose arm). The formulation for the infusion solution was as follows: […]
The first dose of a compound of Formula (I) was administered 24 hours±1 hour prior to the first dose of MEC (mitoxantrone, etoposide, and cytarabine) induction chemotherapy as a sentinel dose to evaluate the effect of the compound of Formula (I) alone (i.e., a single dose of 5, 10, or 20 mg/kg the day before the first chemotherapy day). The compound of Formula (I) was then administered every 12 hours±1 hour on chemotherapy days, starting 2 hours prior to chemotherapy (i.e., 10, 20, or 40 mg/kg per day on chemotherapy days). […] MEC chemotherapy was administered on Days 2-6.
The clinical outcome for each subject was assessed at the time of count recovery following completion of induction chemotherapy. Subjects were assigned to one of four response groups: complete remission (“CR”); complete remission with incomplete count recovery (“CRi”); morphologic leukemia-free state (“MLFS”); persistent disease (“PD”). Complete remission was defined as bone marrow blasts <5%; absence of circulating blasts and blasts with Auer rods; absence of extramedullary disease; ANC ≥1.0×10^9/L and platelets ≥100,000×10^9/L. Complete remission with incomplete recovery was defined as: all CR criteria except for residual neutropenia (<1.0×10^9/L) or thrombocytopenia (<100,000×10^9/L). Morphologic leukemia-free state was defined as: bone marrow blasts <5%; absence of blasts with Auer rods; absence of extramedullary disease; no hematologic recovery required. Persistent disease was defined as: bone marrow blasts >5%.

MLL-AF9 leukemic cells = test: Surviving LSC after high dose cytarabine, limiting dilution transplantation; assay type: in vivo, mice; conditions: with high dose cytarabine (2 x 900 mg/kg)
Experimental: Wild-type mice were transplanted with MLL-AF9 leukemic cells and following engraftment, treated with high dose cytarabine (2 doses of 900 mg/kg at a 12-hour interval (1800 mg/kg total)) alone or in combination with a compound of Formula (I). Bone-marrow cells were harvested 24 hours after treatment and the surviving functional LSCs were quantified by limiting dilution transplantation assays in irradiated wild-type syngeneic recipients. The proportion of recipients who developed leukemia was used to calculate the number of surviving LSC by Poisson's distribution.

[3] = Exposure-response analysis for adverse events; assay type: in vivo, human; conditions: 53 R/R and 25 newly diagnosed older AML subjects, with chemotherapy
Experimental: For Example 15, Exposure-Response (“E-R”) analysis evaluating adverse events against PK metrics was conducted. The sample population for Example 15 included 53 subjects with relapsed/refractory (R/R) AML and 25 older subjects (aged 60 years or older) with newly diagnosed AML. R/R AML subjects were administered MEC chemotherapy and 5, 10, and 20 mg/kg of a compound of Formula (I) BID (i.e., 10, 20, and 40 mg/kg per day). The older subjects (aged 60 years or older) with newly diagnosed AML were administered 7+3 chemotherapy and 10 mg/kg of a compound of Formula (I) BID (i.e., 20 mg/kg per day).
Exposure metrics for the adverse events (“AE”) analysis were generated using the same Pop-PK model described in Example 14. […] Cumulative AUC was determined through each study day. For each metric/day combination, percentile rankings and normalized values were determined. For example, the median of Day 6 AUC values was determined, and normalized values were obtained by dividing each value by the median. In addition, these Day 6 AUC values were ranked, and then multiplied by 100% divided by the number of values to obtain a percentile value.
Adverse events (“AEs”) were classified according the Common Terminology Criteria for Adverse Events (“CTCAE”). […]

CC[C@@H]1CC(C(=O)NCCNC(=O)CCOCCOCCOCCOCCOCCOCCOCCOCCOCCOCCOCCOC)C[C@@H](O[C@@H]2O[C@@H](CO)[C@H](O)C(O[C@@H](CC3CCCCC3)C(=O)O)C2NC(C)=O)C1OC1O[C@@H](C)C(O)[C@H](O)[C@@H]1O (stereo partly drawn) [compound of Formula (I)]
AUC, Mean ([1]; 5 mg/kg/dose): 5.21 µg·days/mL
AUC, Median ([1]; 5 mg/kg/dose): 4.83 µg·days/mL
AUC, Mean ([1]; 10 mg/kg/dose): 9.63 µg·days/mL
AUC, Median ([1]; 10 mg/kg/dose): 9.63 µg·days/mL
AUC, Mean ([1]; 20 mg/kg/dose): 20.43 µg·days/mL
AUC, Median ([1]; 20 mg/kg/dose): 19.33 µg·days/mL
Cmax ([1]; 5 mg/kg, 5 mg/kg/dose, read-out: Cmax, Mean): 38.5 µg/mL
Cmax ([1]; 5 mg/kg, 5 mg/kg/dose, read-out: Cmax, Median): 36.3 µg/mL
Cmax ([1]; 10 mg/kg, 10 mg/kg/dose, read-out: Cmax, Mean): 79.6 µg/mL
Cmax ([1]; 10 mg/kg, 10 mg/kg/dose, read-out: Cmax, Median): 76.2 µg/mL
Cmax ([1]; 20 mg/kg, 20 mg/kg/dose, read-out: Cmax, Mean): 167 µg/mL
Cmax ([1]; 20 mg/kg, 20 mg/kg/dose, read-out: Cmax, Median): 153 µg/mL
CR with incomplete recovery (CRi) ([2]; 10 mg/kg/dose): 0 n
Morphologic Leukemia-Free State (MLFS) ([2]; 10 mg/kg/dose): 0 n
CR with incomplete recovery (CRi) ([2]; 20 mg/kg/dose): 0 n
Morphologic Leukemia-Free State (MLFS) ([2]; 20 mg/kg/dose): 0 n
All-Cause Mortality 30 days ([2]; Phase 1): 0 n
CR/CRi Rate: Cytogenetics (SWOG) Favorable risk ([2]; Phase 1): 0 n
CR/CRi Rate: FLT3-ITD mutated ([2]; Phase 1): 0 n
CR/CRi Rate: Relapsed ≥12-<24 months ([2]; Phase 1): 0 n
Partial Remission (PR) ([2]; Phase 1): 0 n
CR Rate: Cytogenetics Favorable risk ([2]; Phase 1 subgroup): 0 n
increase of sensitivity of LSC to cytarabine treatment (MLL-AF9 leukemic cells): approximately 20 fold
adverse events vs exposure (AUC, cumulative AUC, Cmax) [3]: no strong tendency toward increased AEs, nor increased severity of AEs with exposure
